The results in this text go back to US20150352114A1, “MITOTIC KINESIN Eg5 INHIBITING ANTICANCER AGENTS” (THE CLEVELAND CLINIC FOUNDATION, priority 2014, published 2015).

Molecules are shown by their SMILES.

In one test the test system is 08-387 GSCs. Briefly: Nascent process analysis. In kind it is cell-based, human. The conditions noted are these: 200 nM; 6-hour time course; p<0.0001. The method, then: 08-387 GSCs enriched in interphase were seeded at 6,000 cells per well of a 6 well plate and allowed to adhere for 1 hour. Cells were then exposed to vehicle or 200 nM ispinesib and images recorded over a 6-hour period using the IncuCyte ZOOM (Essen Biosciences, Ann Arbor, Mich.). Process formation was measured using CellPlayer NeuroTrack Software Module (Essen Biosciences).

The subject of test [1] is orthotopic tumor from luciferase-expressing 3691 GSCs. Briefly: Orthotopic GBM xenograft model with systemic ispinesib. In kind it is in vivo, mice.
Description: The tumor was isolated 5 hours later and processed for immunofluorescence to βtubulin with the nuclei counterstained with DAPI. […] 7 days later when positive luminescence signal indicated tumor burden, mice were randomized into one of two treatment groups; vehicle only (DMSO; n=10) or 10 mg/kg ispinesib (n=10) administered on a q4d×6 dosing schedule. Arrows indicate day of vehicle or drug administration.
Subcutaneous or intracranial tumors were fixed overnight in 4% PFA at 4° C., washed in PBS, cryoprotected in 30% sucrose, then embedded in optimal cutting temperature compound (OCT) and stored at −80° C. […] Sections were cut using a LeicaCMXXXX cryostat at 10 μm directly onto slides (Leica Microsystems Inc., Buffalo Grove, Ill.). Sections were postfixed for 15 minutes at room temperature in 4% PFA followed by PBS washes then incubated in blocking solution (5% goat serum, 0.1% Triton X-100 in PBS). Primary antibodies were diluted in blocking solution and used as follows overnight at 4° C.: Sox2 (rabbit, 1:500, Abcam, Cambridge, Mass., USA), atubulin (rat, 1:1000, AbD Serotec, Raleigh, N.C.). Secondary antibodies were Alexa Fluor (1:500, Invitrogen, Grand Island, N.Y., USA) labeled with 488 mixed in blocking solution and incubated for 2 hours at room temperature. DNA was stained using 4′,6-diamidino-2-phenylindole (DAPI, 10 μg/ml, Sigma, St Louis, Mo., USA) diluted in PBS for 5 minutes at room temperature.
To evaluate the efficacy of Eg5 inhibition in a more clinically relevant system, we utilized an orthotopic xenograft model to systemically deliver ispinesib. […] The tumor was sectioned and probed for tubulin to evaluate for the presence of mono-astral spindles, a hallmark of Eg5 inhibition.

Take `Cc1ccc(C(=O)N(CCCN)[C@@H](c2nc3cc(Cl)ccc3c(=O)n2Cc2ccccc2)C(C)C)cc1` [ispinesib, N-(3-amino-propyl)-n-[R-1-(3-benzyl-7-choloro-4-oxo-3,4-dihydroquinazolin-2-yl)-2-methyl-propyl]-4-methyl-benzamide methanesulfonate]: in the test with 08-387 GSCs, the “process length in GSCs” value was “appreciably attenuated”. In addition, the median survival in test [1] (10 mg/kg q4d×6 intraperitoneal) stood at 36 days. Further, the survival versus vehicle result in test [1] (10 mg/kg q4d×6 intraperitoneal, p<0.001) is “significant survival advantage”. Moreover, the “mono-astral spindles in intracranial tumor” value in test [1] (single 10 mg/kg dose, tumor harvested 5 hours later) is given as “numerous cells with mono-astral spindles”.
